In US11083793B2, “Epidermal growth factor receptor (EGFR) targeted photosensitizers” (Health Research, Inc., priority 2016, dated 2021):

Columns and labels:
ABCG2 [1] = biological target: T1, ABCG2 (Homo sapiens, UniProt Q9UNQ0); test: ABCG2 substrate specificity: PS uptake with/without Gleevec, UMUC3; format: cell-based; conditions: UMUC3 cells; PS 500 nM; Gleevec 5 μM; fluorescence
T1 construct: endogenous in cells; host or cells: UMUC3 bladder cancer cells
T1 sequence (Q9UNQ0 1-655): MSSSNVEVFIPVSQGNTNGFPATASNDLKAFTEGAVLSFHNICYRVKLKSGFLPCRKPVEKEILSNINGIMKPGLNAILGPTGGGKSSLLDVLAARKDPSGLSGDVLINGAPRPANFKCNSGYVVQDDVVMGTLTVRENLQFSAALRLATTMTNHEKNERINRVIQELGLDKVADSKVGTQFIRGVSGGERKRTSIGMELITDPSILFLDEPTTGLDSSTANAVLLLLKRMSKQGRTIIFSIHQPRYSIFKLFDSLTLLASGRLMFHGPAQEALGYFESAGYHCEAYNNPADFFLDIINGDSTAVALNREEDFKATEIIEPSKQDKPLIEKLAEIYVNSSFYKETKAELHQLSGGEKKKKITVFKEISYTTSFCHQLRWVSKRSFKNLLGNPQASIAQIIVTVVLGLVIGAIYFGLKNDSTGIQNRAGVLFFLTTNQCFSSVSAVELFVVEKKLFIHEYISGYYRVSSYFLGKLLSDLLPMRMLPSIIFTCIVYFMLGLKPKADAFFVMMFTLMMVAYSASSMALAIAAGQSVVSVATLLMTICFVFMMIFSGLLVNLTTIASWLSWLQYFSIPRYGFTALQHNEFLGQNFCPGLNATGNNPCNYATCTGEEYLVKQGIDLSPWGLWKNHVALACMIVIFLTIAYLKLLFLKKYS
Source text: (§1) T24 cells lack ABCG2 expression.
(§2) C1e. In contrast to PS 1 and 2, the PS- erlotinib conjugate 3 is not the substrate of ABCG2: The influence of PS as substrate for ABCG2 transport was observed by fluorescent microscopy. […] This information is very interesting as it could help to select an effective treatment option to cancer patients with and without expression of ABCG2 transporter.

ABCG2 [2] = test: ABCG2 substrate specificity: PS uptake with/without Gleevec, T24; format: cell-based; conditions: T24 cells (lack ABCG2); PS 500 nM; Gleevec 5 μM; fluorescence
Source text: as §1, §2

ABCG2 [3] = biological target: T1, ABCG2; test: In vitro PDT efficacy with/without Gleevec (MTT), UMUC3; format: cell-based; conditions: UMUC3 cells
Source text: as §2

UMUC3 tumors [4] = test: In vivo uptake in tumor, liver and skin (IVIS), UMUC3 tumors; set-up: species or system SCID mice; conditions: UMUC3 tumor model; 0.47 μmol/kg
Protocol: C1i. PS with and without erlotinib show high tumor-uptake and significant difference in their pharmacokinetic profiles in UMUC3 and T24 tumors implanted in SCID mice: The SCID mice bearing either UMUC3 or T24 tumors (4-5 mm size) were injected with the PS 30, and the corresponding erlotinib conjugates 6, 34 & 39 with and without iodine functionality. Among the iodinated analogs, the iodobenzyl group was introduced either at the bottom half of 5 or top half of the molecule 39, and were converted into the corresponding radioactive (^124I-) analogs for PET imaging. The non-radioactive analogs were injected in tumored mice (3 mice/group) at a dose of 0.47 μmol/kg), and the mice were imaged at regular time intervals. The dose was selected on the basis of the therapeutic dose of HPPH. The uptake of tumor, liver and skin was measured by IVIS system (3 mice group), and interesting pharmacokinetic profiles of the PS were observed (FIG. 8).
C1j. […] Therefore, the tumors were exposed to light at their optimal uptake time points respectively.

UMUC3 tumors [5] = test: HPPH-PDT in combination with BCG, UMUC3 tumors; format: in vivo, mice; conditions: HPPH 0.47 μmol/kg in combination with BCG (1-1.5×10^6 CFU SQ weekly×3); 135 J/cm^2, 75 mW/cm^2 at 6 h
Protocol: For details see the text.
One hour after the PDT treatment, BCG was injected (1-1.5×10^6 CFU), SQ weekly×3 doses, and the day 30 data summarized in FIG. 11, are very encouraging.

HNSCC cells = test: 3-D co-culture of HN-85-1-3 and tumor stromal cells; format: cell-based; conditions: 1600 nM, 24 h, then 48 h in medium
Protocol: The cells were washed free of PS and incubated for additional 48 h in medium. The fluorescence for CSFE stromal cells and PS fluorescence was recorded in an inverted fluorescent microscope.
The tumor specificity of the compounds was also confirmed in head & neck cancer using 3D culture system.

HN-85-1-3 cells = test: Growth inhibition of EGF-dependent HNSCC cell cultures; format: cell-based; conditions: 3.2 μM, 72 h, RPMI+10% FBS; preliminary experiments
Protocol: HN-85-1-3 cells were cultured of 72 h in regular growth medium (RPMI+10% FBS) and containing 3.2 μM erlotinib or the indicated PSs. The cell density was photographically recorded at the beginning and end of the culture period. The cell-associated PSs were determined by fluorescence imaging.

SMILES	uptake of PS on addition of Gleevec (ABCG2 [1])	uptake of PS on addition of Gleevec (ABCG2 [2])	substrate of ABCG2 (ABCG2 [3])	PDT efficacy with and without Gleevec (ABCG2 [3]; MTT assay)	time of optimal/maximum tumor uptake post-injection (UMUC3 tumors [4])	long-term cure compared to HPPH-PDT alone (UMUC3 tumors [5])	retention by HNSCC cells in 3-D co-culture (HNSCC cells)	growth inhibition (HN-85-1-3 cells)
CCCCCCOC(C)c1c(C)c2cc3nc(c4c5[nH]c(cc6nc(cc1[nH]2)C(C)=C6CC)c(C)c5C(=O)C4)[C@@H](CCC(=O)O)[C@@H]3C (some centres unmarked) [HPPH, 2-(1-Hexyloxyethyl)-2-devinyl pyropheophorbide-a]	significantly increased	did not show any significant increase	substrates of ABCG2	enhancement of PDT efficacy	24 h	improved long-term cure	low retention	–
C#Cc1cccc(Nc2ncnc3cc(OCCOC)c(OCCOC)cc23)c1 [erlotinib]	–	–	–	–	–	–	–	cytostatic action
